Experimental data reported in patent US20180104224A1, “PHARMACEUTICAL COMPOSITIONS COMPRISING ANTIBACTERIAL AGENTS” (priority 2014, published 2018).

How the values were obtained:
[1] = tested on: Pseudomonas aeruginosa 1405; experiment: Time kill study; type: cell-based; conditions: P. aeruginosa 1405; for effect on bacterial counts through out the duration of the study (in words): when used alone
Protocol: (§1) The synergistic killing effect of the combinations according to invention was studied by performing time kill studies. In a typical time kill study, the freshly grown cultures were diluted to the required cell density (initial starting inoculum) in Cation adjusted Muller Hinton broth medium (BD, USA). The antibacterial agents (either alone or in combination) at the required concentrations were added into the culture-containing medium. The samples were incubated under shaking condition (120 rpm) at 37° C. Enumeration of viable bacterial count was done every 2 hour by diluting in normal saline and plating on to the Tryptic Soya Agar plates (BD, USA). The plates were incubated for 24 hours to arrive at the viable bacterial count. The results are expressed in terms of Log10 CFU per ml. In general, the decrease of 1 Log10 CFU/ml, corresponds to 90% killing of bacteria.

[2] = tested on: Pseudomonas aeruginosa R70; experiment: Time kill study; type: cell-based; conditions: P. aeruginosa R70; for effect on bacterial counts through out the duration of the study (in words): when used alone
Protocol: as §1

[3] = tested on: highly resistant strains of Pseudomonas aeruginosa; experiment: MIC determination, all strains; type: cell-based; conditions: highly resistant strains of P. aeruginosa
Protocol: (§2) The antibacterial activity of combinations according to the invention against resistant bacterial strains was investigated. Minimum Inhibitory Concentration (MIC) determination for the combinations according to invention was carried out in Muller Hinton Agar (MHA) (BD, USA) according to Clinical and Laboratory Standards Institute (CLSI) recommendations, (Clinical and Laboratory Standards Institute (CLSI), Performance Standards for Antimicrobial Susceptibility Testing, 20th Informational Supplement, M 100-S20, Volume 30, No. 1, 2010). In short, the test strains were adjusted to deliver about 10^4 CFU per spot with a multipoint inoculator (Applied Quality Services, UK). The plates were pored with MHA containing doubling concentration range of the test combinations according to invention. The plates were inoculated and were incubated at 35° C. for 18 hours.
The results on antibacterial activity of a carbapenem antibacterial agent selected from imipenem, meropenem, ertapenem and doripenem alone and in combination with Compound A or Compound B, against highly resistant strains of Pseudomonas aeruginosa are given in Table 1. […] For example, P. aeruginosa 2779 harbors resistance due to increased AmpC expression (300 times) and increased efflux; P. aeruginosa 1405 harbors resistance due to increased AmpC expression (600 times), reduced OprD expression and increased efflux; P. aeruginosa R 70 harbors resistance due to reduced OprD expression and increased efflux; and P. aeruginosa J 154 harbors resistance due to reduced OprD.

[4] = tested on: P. aeruginosa 1405; experiment: MIC determination in Muller Hinton Agar (CLSI); type: cell-based, Pseudomonas aeruginosa; conditions: for MIC (mcg/ml) of carbapenem in presence of [A] at 4 mcg/ml: in presence of Compound A at 4 mcg/ml; for MIC (mcg/ml) of carbapenem in presence of [B] at 4 mcg/ml: in presence of Compound B at 4 mcg/ml;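 on all read-outs here: MIC read as lowest concentration giving complete growth inhibition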
Protocol: as §2

[5] = tested on: P. aeruginosa R 70; experiment: MIC determination in Muller Hinton Agar (CLSI);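 on MIC (mcg/ml) of carbapenem in presence of [A] at 4 mcg/ml: MIC read as lowest concentration giving complete growth inhibition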;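 on MIC (mcg/ml) of carbapenem in presence of [B] at 4 mcg/ml: MIC read as lowest concentration giving complete growth inhibition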; type: cell-based, Pseudomonas aeruginosa; conditions: for MIC: Pseudomonas aeruginosa, R70, 18 h, agent alone, P. aeruginosa R 70 [Reduced OprD + increased efflux]; for MIC (mcg/ml) of carbapenem in presence of [A] at 4 mcg/ml: in presence of Compound A at 4 mcg/ml; for MIC (mcg/ml) of carbapenem in presence of [A] at 4 mcg/ml / MIC (mcg/ml) of carbapenem in presence of [B] at 4 mcg/ml: P. aeruginosa R 70; for MIC (mcg/ml) of carbapenem in presence of [B] at 4 mcg/ml: in presence of Compound B at 4 mcg/ml
Protocol: as §2

[6] = tested on: P. aeruginosa J 154; experiment: MIC determination in Muller Hinton Agar (CLSI); type: cell-based, Pseudomonas aeruginosa; conditions: for MIC: Pseudomonas aeruginosa, J154, agent alone, P. aeruginosa J 154 [Reduced OprD]; for MIC (mcg/ml) of carbapenem in presence of [A] at 4 mcg/ml: in presence of Compound A at 4 mcg/ml; for MIC (mcg/ml) of carbapenem in presence of [A] at 4 mcg/ml / MIC (mcg/ml) of carbapenem in presence of [B] at 4 mcg/ml: P. aeruginosa J 154; for MIC (mcg/ml) of carbapenem in presence of [B] at 4 mcg/ml: in presence of Compound B at 4 mcg/ml
Protocol: as §2

[7] = tested on: P. aeruginosa 2779; experiment: MIC determination in Muller Hinton Agar (CLSI); type: cell-based, Pseudomonas aeruginosa; conditions: for MIC (mcg/ml) of carbapenem in presence of [A] at 4 mcg/ml: in presence of Compound A at 4 mcg/ml; for MIC (mcg/ml) of carbapenem in presence of [B] at 4 mcg/ml: in presence of Compound B at 4 mcg/ml;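 on all read-outs here: MIC read as lowest concentration giving complete growth inhibition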
Protocol: as §2

[8] = in presence of Compound A or Compound B
[9] = Table 2, single agent 16 mcg/ml
[10] = Table 3, single agent 16 mcg/ml
[11] = Table 4, single agent 16 mcg/ml
[12] = Table 5, single agent 16 mcg/ml

C[C@@H](O)[C@H]1C(=O)N2C(C(=O)O)=C(S[C@@H]3CN[C@H](CNS(N)(=O)=O)C3)[C@H](C)[C@H]12 [Doripenem, doripenem]
effect on bacterial counts through out the duration of the study (in words) [1]: failed to reduce the bacterial counts | Bacterial count (Log10 CFU/ml) 0 hour ([1]; Table 2, single agent 4 mcg/ml): 6.84 Log10 CFU/ml | Bacterial count (Log10 CFU/ml) 2 hour ([1]; Table 2, single agent 4 mcg/ml): 6.17 Log10 CFU/ml | Bacterial count (Log10 CFU/ml) 4 hour ([1]; Table 2, single agent 4 mcg/ml): 5.90 Log10 CFU/ml | Bacterial count (Log10 CFU/ml) 6 hour ([1]; Table 2, single agent 4 mcg/ml): 6.60 Log10 CFU/ml | Bacterial count (Log10 CFU/ml) 0 hour ([1]; Table 3, single agent 4 mcg/ml): 6.81 Log10 CFU/ml | Bacterial count (Log10 CFU/ml) 2 hour ([1]; Table 3, single agent 4 mcg/ml): 6.17 Log10 CFU/ml | Bacterial count (Log10 CFU/ml) 4 hour ([1]; Table 3, single agent 4 mcg/ml): 5.90 Log10 CFU/ml | Bacterial count (Log10 CFU/ml) 6 hour ([1]; Table 3, single agent 4 mcg/ml): 6.60 Log10 CFU/ml | effect on bacterial counts through out the duration of the study (in words) [2]: failed to reduce the bacterial counts | Bacterial count (Log10 CFU/ml) 0 hour ([2]; Table 4, single agent 4 mcg/ml): 6.62 Log10 CFU/ml | Bacterial count (Log10 CFU/ml) 2 hour ([2]; Table 4, single agent 4 mcg/ml): 5.74 Log10 CFU/ml | Bacterial count (Log10 CFU/ml) 4 hour ([2]; Table 4, single agent 4 mcg/ml): 5.65 Log10 CFU/ml | Bacterial count (Log10 CFU/ml) 6 hour ([2]; Table 4, single agent 4 mcg/ml): 5.65 Log10 CFU/ml | Bacterial count (Log10 CFU/ml) 0 hour ([2]; Table 5, single agent 4 mcg/ml): 6.44 Log10 CFU/ml | Bacterial count (Log10 CFU/ml) 2 hour ([2]; Table 5, single agent 4 mcg/ml): 5.74 Log10 CFU/ml | Bacterial count (Log10 CFU/ml) 4 hours ([2]; Table 5, single agent 4 mcg/ml): 5.65 Log10 CFU/ml | Bacterial count (Log10 CFU/ml) 6 hour ([2]; Table 5, single agent 4 mcg/ml): 5.65 Log10 CFU/ml | MIC values (in words) [3, 8]: decreased significantly | MIC values (in words) ([3]; when used alone): higher MIC values | MIC (mcg/ml) of carbapenem in presence of [A] at 4 mcg/ml [4]: 4 µg/mL | MIC (mcg/ml) of carbapenem in presence of [B] at 4 mcg/ml [4]: 4 µg/mL | MIC [5]: 16 µg/mL | MIC (mcg/ml) of carbapenem in presence of [A] at 4 mcg/ml [5]: 8 µg/mL | MIC (mcg/ml) of carbapenem in presence of [B] at 4 mcg/ml [5]: <0.12 µg/mL | MIC [6]: 8 µg/mL | MIC (mcg/ml) of carbapenem in presence of [A] at 4 mcg/ml [6]: 8 µg/mL | MIC (mcg/ml) of carbapenem in presence of [B] at 4 mcg/ml [6]: 4 µg/mL | MIC (mcg/ml) of carbapenem in presence of [A] at 4 mcg/ml [7]: 0.12 µg/mL | MIC (mcg/ml) of carbapenem in presence of [B] at 4 mcg/ml [7]: 0.06 µg/mL

C[C@@H](O)[C@H]1C(=O)N2C(C(=O)O)=C(S[C@@H]3CN[C@H](C(=O)Nc4cccc(C(=O)O)c4)C3)[C@H](C)[C@H]12 [Ertapenem, ertapenem]
effect on bacterial counts through out the duration of the study (in words) [1]: failed to reduce the bacterial counts | Bacterial count (Log10 CFU/ml) 0 hour [1, 9]: 6.84 Log10 CFU/ml | Bacterial count (Log10 CFU/ml) 2 hour [1, 9]: 6.90 Log10 CFU/ml | Bacterial count (Log10 CFU/ml) 4 hour [1, 9]: 7.87 Log10 CFU/ml | Bacterial count (Log10 CFU/ml) 6 hour [1, 9]: 7.65 Log10 CFU/ml | Bacterial count (Log10 CFU/ml) 0 hour [1, 10]: 6.81 Log10 CFU/ml | Bacterial count (Log10 CFU/ml) 2 hour [1, 10]: 6.90 Log10 CFU/ml | Bacterial count (Log10 CFU/ml) 4 hour [1, 10]: 7.87 Log10 CFU/ml | Bacterial count (Log10 CFU/ml) 6 hour [1, 10]: 7.65 Log10 CFU/ml | effect on bacterial counts through out the duration of the study (in words) [2]: failed to reduce the bacterial counts | Bacterial count (Log10 CFU/ml) 0 hour [2, 11]: 6.62 Log10 CFU/ml | Bacterial count (Log10 CFU/ml) 2 hour [2, 11]: 6.87 Log10 CFU/ml | Bacterial count (Log10 CFU/ml) 4 hour [2, 11]: 7.47 Log10 CFU/ml | Bacterial count (Log10 CFU/ml) 6 hour [2, 11]: 8.16 Log10 CFU/ml | Bacterial count (Log10 CFU/ml) 0 hour [2, 12]: 6.44 Log10 CFU/ml | Bacterial count (Log10 CFU/ml) 2 hour [2, 12]: 6.46 Log10 CFU/ml | Bacterial count (Log10 CFU/ml) 4 hours [2, 12]: 7.17 Log10 CFU/ml | Bacterial count (Log10 CFU/ml) 6 hour [2, 12]: 7.13 Log10 CFU/ml | MIC values (in words) [3, 8]: decreased significantly | MIC values (in words) ([3]; when used alone): higher MIC values | MIC (mcg/ml) of carbapenem in presence of [A] at 4 mcg/ml [4]: 128 µg/mL | MIC (mcg/ml) of carbapenem in presence of [B] at 4 mcg/ml [4]: 64 µg/mL | MIC [5]: > 128 µg/mL | MIC (mcg/ml) of carbapenem in presence of [A] at 4 mcg/ml [5]: >128 µg/mL | MIC (mcg/ml) of carbapenem in presence of [B] at 4 mcg/ml [5]: ≤0.12 µg/mL | MIC [6]: > 128 µg/mL | MIC (mcg/ml) of carbapenem in presence of [A] at 4 mcg/ml [6]: >128 µg/mL | MIC (mcg/ml) of carbapenem in presence of [B] at 4 mcg/ml [6]: 128 µg/mL | MIC (mcg/ml) of carbapenem in presence of [A] at 4 mcg/ml [7]: 4 µg/mL | MIC (mcg/ml) of carbapenem in presence of [B] at 4 mcg/ml [7]: 4 µg/mL
